What was measured:
human EP2 (PTGER2) = biological target: T1, human EP2 (PTGER2) (Homo sapiens, UniProt P43116); assay: EP2 antagonist assay (HEK-293 CNG membrane potential cAMP assay / 293T SEAP reporter assay, PGE2-stimulated); format: cell-based; details: EP2 antagonist activity; concentration for 50% inhibition of signal compared to DMSO
T1 construct: Cayman Chemical (Human EP2 Reporter Assay Kit)
Procedure, shortened: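 Two formats. In a CRE-SEAP reporter assay, reverse-transfected 293T cells received compound with PGE2 (13 nM final) for 6-8 h, then luminescence was read. In the ACTOne CNG format, HEK-293 cells were preincubated with compound for 15 min at RT, stimulated with 5 nM PGE2 for 30 min, and read by membrane-potential dye fluorescence. IC50 was taken versus DMSO.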

human EP4 (EP4R) = biological target: T2, human EP4 (EP4R) (Homo sapiens, UniProt P35408); assay: EP4 antagonist assay (HEK-293 CNG membrane potential cAMP assay / 293T SEAP reporter assay, PGE2-stimulated); format: cell-based; details: EP4 antagonist activity; concentration for inhibition of signal compared to DMSO
T2 construct: Cayman Chemical (Human EP4 Reporter Assay Kit)
T2 sequence (P35408 whole entry): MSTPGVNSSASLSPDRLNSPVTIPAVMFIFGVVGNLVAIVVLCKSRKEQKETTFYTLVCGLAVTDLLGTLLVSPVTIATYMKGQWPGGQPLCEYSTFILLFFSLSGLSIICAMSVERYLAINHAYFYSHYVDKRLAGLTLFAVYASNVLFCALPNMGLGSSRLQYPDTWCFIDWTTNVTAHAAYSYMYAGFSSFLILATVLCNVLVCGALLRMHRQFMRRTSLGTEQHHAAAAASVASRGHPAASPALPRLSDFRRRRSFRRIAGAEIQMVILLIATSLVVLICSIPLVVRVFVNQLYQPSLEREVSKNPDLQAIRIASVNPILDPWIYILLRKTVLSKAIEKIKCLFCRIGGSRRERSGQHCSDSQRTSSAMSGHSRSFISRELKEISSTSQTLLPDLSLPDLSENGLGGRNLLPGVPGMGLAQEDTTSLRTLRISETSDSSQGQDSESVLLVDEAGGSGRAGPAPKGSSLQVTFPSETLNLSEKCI
Excerpt: 1. The HEK-293 CNG (Cyclic Nucleotide Gated) cell line expressing a modified CNG channel that leads to cell membrane depolarization in response to elevated intracellular cAMP levels, which can be measured using a fluorescent membrane potential dye, was engineered to express human EP2 (PTGER2) or EP4 (EP4R). The resulting cell line ACTOne™ PTGER2 or ACTOne™ EP4R as well as the fluorescent membrane potential dye were purchased from eEnzyme (Gaithersburg, MD, US) and used in this assay. Briefly, cells were plated at 1.2×10^4 cells/well in 20 μL DMEM supplemented with 2% Fetal Bovine Serum (FBS, VWR International), 1x Penicillin/Streptomycin (GenClone), 0.2 μg/mL puromycin (InvivoGen) and 50 μg/mL G418 (InvivoGen) on a 384 well plate (Greiner). The next day, cells were dye-loaded with 20 μL/well of 1x Dye-loading solution (eENZYME) following the manufacturer's instruction. After 2 hours of incubation at room temperature (RT) in the dark, a pre-read was made to obtain the background signals using CLARIOstar plate reader (BMG LABTECH, Germany) with the following filter settings: excitation=530/20 nm, emission=590/20 nm. Next, a serial dilution of compound (plus a DMSO control) were added to the plate (5 μL/well) and the reaction was incubated at RT for 15 min before adding 5 μL of PGE2 to every well for a final concentration of 5 nM. All wells were duplicated. The plate was then further incubated at RT for 30 min prior to a final read with the same machine settings. Background-subtracted signals were used to calculate IC50 values.
2. Human EP2 and EP4 Reporter Assay Kits were purchased from Cayman Chemical (Ann Arbor, MI, USA). The assay was performed following the provided User Manual. Briefly, a reverse transfection was performed by seeding 6.0×10^4 of 293T cells (ATCC) to each well of the provided Strip Plate coated with a proprietary transfection complex containing DNA constructs for expressing human EP2 or EP4 and a cAMP response element regulated secreted alkaline phosphatase (SEAP) reporter, in 200 μL DMEM supplemented with 2% FBS and incubated for 20-24 hours at 37° C. with 5% CO2. After the incubation, the culture medium was carefully removed, and the cells were replenished with 150 μL pre-warmed serum-free medium. PGE2 and test compounds were prepared together at 4x the desired final concentration, and 50 μL was added to each assigned well with the final concentration of 13 nM and 2 nM PGE2 for EP2 and EP4 assay, respectively. After 6-8 hours of incubation, 10 μL media from each well was transferred to corresponding well of a new plate, which was then sealed and incubated at 65° C. for 30 min. The plate was then cooled down to RT and 50 μL SEAP substrate was added to each well. Luminescence signal was measured using a CLARIOstar plate reader.
The IC50 value was determined as the concentration for […] inhibition of signal compared to DMSO (A: IC50≤100 nM; B: IC50 between 100 nM and 1,000 nM; C: IC50≥1,000 nM).

T1 sequence (P43116 whole entry): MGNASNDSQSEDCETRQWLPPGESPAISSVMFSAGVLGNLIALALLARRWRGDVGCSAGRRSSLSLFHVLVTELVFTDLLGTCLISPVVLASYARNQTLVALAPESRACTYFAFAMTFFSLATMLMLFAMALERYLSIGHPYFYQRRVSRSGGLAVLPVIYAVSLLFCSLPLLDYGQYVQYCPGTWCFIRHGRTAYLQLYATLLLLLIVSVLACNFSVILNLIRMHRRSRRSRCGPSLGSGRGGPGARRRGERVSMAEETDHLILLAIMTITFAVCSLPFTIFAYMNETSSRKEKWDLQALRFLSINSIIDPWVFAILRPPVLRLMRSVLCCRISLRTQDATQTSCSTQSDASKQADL

| IC50 (human EP2 (PTGER2)) | IC50 (human EP4 (EP4R)) | SMILES |
| --- | --- | --- |
| < 100 nM | ≤ 100 nM | O=C(O)c1ccc(CNC(=O)c2cc(-c3cccnc3)cc3ccn(Cc4ccc(C(F)(F)F)cc4)c23)cc1 [Example 78, 4-((5-(pyridin-3-yl)-1-(4-(trifluoromethyl)benzyl)-1H-indole-7-carboxamido)methyl)benzoic acid] |
| < 100 nM | ≤ 100 nM | O=C(O)c1ccc(CNC(=O)c2cc(-c3ccncc3)cc3ccn(Cc4ccc(C(F)(F)F)cc4)c23)cc1 [Example 80, 4-((5-(pyridin-4-yl)-1-(4-(trifluoromethyl)benzyl)-1H-indole-7-carboxamido)methyl)benzoic acid] |
| 100 to 1000 nM | ≤ 100 nM | CC(C)(O)c1cccc(-c2cc(C(=O)NCc3ccc(C(=O)O)cc3)c3c(ccn3Cc3ccc(C(F)(F)F)cc3)c2)c1 [Example 85, 4-((5-(3-(2-hydroxypropan-2-yl)phenyl)-1-(4-(trifluoromethyl)benzyl)-1H-indole-7-carboxamido)methyl)benzoic acid] |
| < 100 nM | ≤ 100 nM | O=C(O)c1ccc(CNC(=O)c2cc(-c3ccccc3F)cc3ccn(Cc4ccc(C(F)(F)F)cc4)c23)cc1 [Example 87, 4-((5-(2-fluorophenyl)-1-(4-(trifluoromethyl)benzyl)-1H-indole-7-carboxamido)methyl)benzoic acid] |
| < 100 nM | ≤ 100 nM | O=C(O)c1ccc(CNC(=O)c2cc(-c3ccc(F)cc3)cc3cnn(Cc4ccc(C(F)(F)F)cc4)c23)cc1 [Example 96, 4-((5-(4-fluorophenyl)-1-(4-(trifluoromethyl)benzyl)-1H-indazole-7-carboxamido)methyl)benzoic acid] |
| < 100 nM | ≤ 100 nM | O=C(O)c1ccc(CNC(=O)c2cc(-c3ccccc3)cc3cnn(Cc4ccc(C(F)(F)F)cc4)c23)cc1 [Example 97, 4-((5-phenyl-1-(4-(trifluoromethyl)benzyl)-1H-indazole-7-carboxamido)methyl)benzoic acid] |
| < 100 nM | ≤ 100 nM | C[C@H](NC(=O)c1cc(-c2ccccc2)cc2cnn(Cc3ccc(C(F)(F)F)cc3)c12)c1ccc(C(=O)O)cc1 [Example 100, (S)-4-(1-(5-phenyl-1-(4-(trifluoromethyl)benzyl)-1H-indazole-7-carboxamido)ethyl)benzoic acid] |
| < 100 nM | ≤ 100 nM | C[C@H](NC(=O)c1cc(-c2cc(F)cc(F)c2)cc2cnn(Cc3ccc(C(F)(F)F)cc3)c12)c1ccc(C(=O)O)cc1 [Example 101, (S)-4-(1-(5-(3,5-difluorophenyl)-1-(4-(trifluoromethyl)benzyl)-1H-indazole-7-carboxamido)ethyl)benzoic acid] |
| < 100 nM | ≤ 100 nM | O=C(O)c1ccc(CNC(=O)c2cc(-c3cc(F)cc(F)c3)cc3ccn(Cc4cccc(Cl)c4)c23)cc1 [Example 106, 4-((1-(3-chlorobenzyl)-5-(3,5-difluorophenyl)-1H-indole-7-carboxamido)methyl)benzoic acid] |
| < 100 nM | ≤ 100 nM | O=C(O)c1ccc(CNC(=O)c2cc(-c3ccc(F)cc3)cc3ccn(Cc4cccc(Cl)c4)c23)cc1 [Example 107, 4-((1-(3-chlorobenzyl)-5-(4-fluorophenyl)-1H-indole-7-carboxamido)methyl)benzoic acid] |
| < 100 nM | ≤ 100 nM | N#Cc1cccc(-c2cc(C(=O)NCc3ccc(C(=O)O)cc3)c3c(Sc4ccc(C(F)(F)F)cc4)c[nH]c3c2)c1 [Example 117, 4-((6-(3-cyanophenyl)-3-((4-(trifluoromethyl)phenyl)thio)-1H-indole-4-carboxamido)methyl)benzoic acid] |
| < 100 nM | ≤ 100 nM | O=C(O)c1ccc(CNC(=O)c2cc(-c3ccc(F)cc3)cc3ccn(Cc4cccc(C(F)(F)F)c4)c23)cc1 [Example 124, 4-((5-(4-fluorophenyl)-1-(3-(trifluoromethyl)benzyl)-1H-indole-7-carboxamido)methyl)benzoic acid] |

Continued, compound first:

| SMILES | IC50 (human EP2 (PTGER2)) | IC50 (human EP4 (EP4R)) |
| --- | --- | --- |
| N#Cc1cccc(-c2cc(C(=O)NCc3ccc(C(=O)O)cc3)c3c(ccn3Cc3ccc(C(F)(F)F)cc3)c2)c1 [Example 7, 4-((5-(3-cyanophenyl)-1-(4-(trifluoromethyl)benzyl)-1H-indole-7-carboxamido)methyl)benzoic acid] | < 100 nM | ≤ 100 nM |
| O=C(O)c1ccc(CNC(=O)c2cc(-c3cc(F)cc(F)c3)cc3ccn(Cc4ccc(C(F)(F)F)cc4)c23)cc1 [Example 9, 4-((5-(3,5-difluorophenyl)-1-(4-(trifluoromethyl)benzyl)-1H-indole-7-carboxamido)methyl)benzoic acid] | < 100 nM | ≤ 100 nM |
| O=C(O)c1ccc(C2(NC(=O)c3ccc(Nc4ccccc4)c4ccn(Cc5ccc(C(F)(F)F)cc5)c34)CC2)cc1 [Example 44, 4-(1-(4-(phenylamino)-1-(4-(trifluoromethyl)benzyl)-1H-indole-7-carboxamido)cyclopropyl)benzoic acid] | < 100 nM | ≤ 100 nM |
| C[C@H](NC(=O)c1cc(-c2ccc(F)cc2)cc2ccn(Cc3ccc(C(F)(F)F)cc3)c12)c1ccc(C(=O)O)cc1 [Example 50, (S)-4-(1-(5-(4-fluorophenyl)-1-(4-(trifluoromethyl)benzyl)-1H-indole-7-carboxamido)ethyl) benzoic acid] | < 100 nM | ≤ 100 nM |
| C[C@H](NC(=O)c1cc(-c2ccccc2)cc2ccn(Cc3ccc(C(F)(F)F)cc3)c12)c1ccc(C(=O)O)cc1 [Example 51, (S)-4-(1-(5-phenyl-1-(4-(trifluoromethyl)benzyl)-1H-indole-7-carboxamido)ethyl) benzoic acid] | < 100 nM | ≤ 100 nM |
| C[C@H](NC(=O)c1cc(-c2cccc(C#N)c2)cc2ccn(Cc3ccc(C(F)(F)F)cc3)c12)c1ccc(C(=O)O)cc1 [Example 52, (S)-4-(1-(5-(3-cyanophenyl)-1-(4-(trifluoromethyl)benzyl)-1H-indole-7-carboxamido)ethyl) benzoic acid] | < 100 nM | ≤ 100 nM |
| O=C(O)c1ccc(CNC(=O)c2ccc(Nc3ccccc3)c3ccn(Cc4ccc(C(F)(F)F)cc4)c23)cc1 [Example 57, 4-((4-(phenylamino)-1-(4-(trifluoromethyl)benzyl)-1H-indole-7-carboxamido)methyl)benzoic acid] | < 100 nM | 100 to 1000 nM |
| O=C(O)c1ccc(CNC(=O)c2ccc(Nc3cc(F)cc(F)c3)c3ccn(Cc4ccc(C(F)(F)F)cc4)c23)cc1 [Example 69, 4-((4-((3,5-difluorophenyl)amino)-1-(4-(trifluoromethyl)benzyl)-1H-indole-7-carboxamido)methyl)benzoic acid] | < 100 nM | 100 to 1000 nM |
| C[C@H](NC(=O)c1ccc(Nc2ccccc2)c2ccn(Cc3ccc(C(F)(F)F)cc3)c12)c1ccc(C(=O)O)cc1 [Example 74, (S)-4-(1-(4-(phenylamino)-1-(4-(trifluoromethyl)benzyl)-1H-indole-7-carboxamido)ethyl)benzoic acid] | < 100 nM | ≤ 100 nM |
| COc1cccc(-c2cc(C(=O)NCc3ccc(C(=O)O)cc3)c3c(ccn3Cc3ccc(C(F)(F)F)cc3)c2)c1 [Example 76, 4-((5-(3-methoxyphenyl)-1-(4-(trifluoromethyl)benzyl)-1H-indole-7-carboxamido)methyl)benzoic acid] | < 100 nM | ≤ 100 nM |
